Tests used:
[1] = target: Serine/threonine-protein kinase MRCK beta (Homo sapiens) (UniProt Q9Y5S2); assay: Inhibition of wild-type human partial length MRCKB (L56 to S417 residues) expressed in bacterial expression system at 1 uM by Kinomescan method relative to control
[2] = target: LIM domain kinase 1 (Homo sapiens) (UniProt P53667); assay: Inhibition of wild-type human full length LIMK1 (M1 to D647 residues) expressed in bacterial expression system at 1 uM by Kinomescan method relative to control
[3] = target: Serine/threonine-protein kinase BRSK2 (Homo sapiens) (UniProt Q8IWQ3); assay: Inhibition of wild-type human full length BRSK2 (M1 to L674 residues) expressed in bacterial expression system at 1 uM by Kinomescan method relative to control
[4] = system: Epidermal growth factor receptor (Homo sapiens), P00533 [L858R]; assay: Inhibition of human partial length EGFR L858R mutant (R669 to V1011 residues) expressed in bacterial expression system at 1 uM by Kinomescan method relative to control
[5] = target: Myosin-IIIa (Homo sapiens) (UniProt Q8NEV4); assay: Inhibition of wild-type human partial length MYO3A (M1 to K338 residues) expressed in bacterial expression system at 1 uM by Kinomescan method relative to control
[6] = target: Calcium-dependent protein kinase 1 (Plasmodium falciparum) (UniProt P62344); assay: Inhibition of wild-type Plasmodium falciparum full length CDPK1 (M1 to S524 residues) expressed in mammalian expression system at 1 uM by Kinomescan method relative to control
[7] = target: RAF proto-oncogene serine/threonine-protein kinase (Homo sapiens) (UniProt P04049); assay: Inhibition of wild-type human partial length RAF1 (I330 to T640 residues) expressed in bacterial expression system at 1 uM by Kinomescan method relative to control
[8] = target: Receptor-type tyrosine-protein kinase FLT3 (Homo sapiens) (UniProt P36888); assay: Inhibition of wild-type human partial length autoinhibited FLT3 (H564 to Y969 residues) expressed in mammalian expression system at 1 uM by Kinomescan method relative to control
[9] = target: Mitogen-activated protein kinase kinase kinase 5 (Homo sapiens) (UniProt Q99683); assay: Inhibition of wild-type human partial length ASK1 (E648 to S964 residues) expressed in bacterial expression system at 1 uM by Kinomescan method relative to control
[10] = target: Myosin light chain kinase (Homo sapiens) (UniProt Q32MK0); assay: Inhibition of wild-type human partial length MLCK (D488 to K800 residues) expressed in bacterial expression system at 1 uM by Kinomescan method relative to control
[11] = target: Receptor-type tyrosine-protein kinase FLT3 (Homo sapiens) (UniProt P36888); assay: Inhibition of wild-type human partial length FLT3 (V592 to Y969 residues) expressed in bacterial expression system at 1 uM by Kinomescan method relative to control
[12] = target: Mitogen-activated protein kinase kinase kinase 4 (Homo sapiens) (UniProt Q9Y6R4); assay: Inhibition of wild-type human partial length MAP3K4 (G1319 to E1608 residues) expressed in bacterial expression system at 1 uM by Kinomescan method relative to control
[13] = target: Phosphatidylinositol 4-phosphate 5-kinase type-1 alpha (Homo sapiens) (UniProt Q99755); assay: Inhibition of wild-type human full length PIP5K1A (M1 to H562 residues) expressed in bacterial expression system at 1 uM by Kinomescan method relative to control
[14] = system: Phosphatidylinositol 4,5-bisphosphate 3-kinase catalytic subunit alpha isoform (Homo sapiens), P42336 [H1047Y]; assay: Inhibition of human partial length PIK3CA H1047Y mutant (R108 to N1068 residues) expressed in mammalian expression system at 1 uM by Kinomescan method relative to control
[15] = target: Wee1-like protein kinase (Homo sapiens) (UniProt P30291); assay: Inhibition of wild-type human partial length WEE1 (M291 to K575 residues) expressed in bacterial expression system at 1 uM by Kinomescan method relative to control
[16] = target: 5'-AMP-activated protein kinase catalytic subunit alpha-1 (Homo sapiens) (UniProt Q13131); assay: Inhibition of wild-type human partial length AMPK alpha1 (M1 to E306 residues) expressed in bacterial expression system at 1 uM by Kinomescan method relative to control
[17] = target: 5'-AMP-activated protein kinase catalytic subunit alpha-1 (Homo sapiens) (UniProt Q13131); assay: Inhibition of wild-type human partial length AMPK alpha1 (M1 to E306 residues) expressed in bacterial expression system at 10 uM by Kinomescan method relative to control
[18] = system: Epidermal growth factor receptor (Homo sapiens), P00533 [L858R]; assay: Inhibition of human partial length EGFR L858R mutant (R669 to V1011 residues) expressed in bacterial expression system at 10 uM by Kinomescan method relative to control
[19] = target: Protein kinase C theta type (Homo sapiens) (UniProt Q04759); assay: Inhibition of wild-type human partial length PRKCQ (L350 to S706 residues) expressed in bacterial expression system at 10 uM by Kinomescan method relative to control
[20] = target: Serine/threonine-protein kinase PAK 4 (Homo sapiens) (UniProt O96013); assay: Inhibition of wild-type human partial length PAK4 (Q144 to R438 residues) expressed in bacterial expression system at 10 uM by Kinomescan method relative to control
[21] = target: Dual specificity mitogen-activated protein kinase kinase 1 (Homo sapiens) (UniProt Q02750); assay: Inhibition of wild-type human full length MEK1 (M1 to V393 residues) expressed in mammalian expression system at 10 uM by Kinomescan method relative to control
[22] = target: Serine/threonine-protein kinase Nek10 (Homo sapiens) (UniProt Q6ZWH5); assay: Inhibition of wild-type human partial length NEK10 (L488 to R809 residues) expressed in mammalian expression system at 10 uM by Kinomescan method relative to control
[23] = target: Tyrosine-protein kinase Mer (Homo sapiens) (UniProt Q12866); assay: Inhibition of wild-type human partial length MERTK (R557 to L884 residues) expressed in bacterial expression system at 10 uM by Kinomescan method relative to control
[24] = target: Bone morphogenetic protein receptor type-2 (Homo sapiens) (UniProt Q13873); assay: Inhibition of wild-type human partial length BMPR2 (R179 to Q526 residues) expressed in mammalian expression system at 10 uM by Kinomescan method relative to control
[25] = system: Proto-oncogene tyrosine-protein kinase receptor Ret (Homo sapiens), P07949 [V804M]; assay: Inhibition of human partial length RET V804M mutant (E713 to D1014 residues) expressed in bacterial expression system at 10 uM by Kinomescan method relative to control
[26] = target: Epidermal growth factor receptor (Homo sapiens) (UniProt P00533); assay: Inhibition of wild-type human partial length EGFR (R669 to V1011 residues) expressed in bacterial expression system at 10 uM by Kinomescan method relative to control
[27] = target: Serine/threonine-protein kinase/endoribonuclease IRE1 (Homo sapiens) (UniProt O75460); assay: Inhibition of wild-type human partial length ERN1 (S551 to E852 residues) expressed in mammalian expression system at 10 uM by Kinomescan method relative to control

Sequence of 5'-AMP-activated protein kinase catalytic subunit alpha-1 (Homo sapiens) (Q13131 whole entry, looked up, the tested form may be a part): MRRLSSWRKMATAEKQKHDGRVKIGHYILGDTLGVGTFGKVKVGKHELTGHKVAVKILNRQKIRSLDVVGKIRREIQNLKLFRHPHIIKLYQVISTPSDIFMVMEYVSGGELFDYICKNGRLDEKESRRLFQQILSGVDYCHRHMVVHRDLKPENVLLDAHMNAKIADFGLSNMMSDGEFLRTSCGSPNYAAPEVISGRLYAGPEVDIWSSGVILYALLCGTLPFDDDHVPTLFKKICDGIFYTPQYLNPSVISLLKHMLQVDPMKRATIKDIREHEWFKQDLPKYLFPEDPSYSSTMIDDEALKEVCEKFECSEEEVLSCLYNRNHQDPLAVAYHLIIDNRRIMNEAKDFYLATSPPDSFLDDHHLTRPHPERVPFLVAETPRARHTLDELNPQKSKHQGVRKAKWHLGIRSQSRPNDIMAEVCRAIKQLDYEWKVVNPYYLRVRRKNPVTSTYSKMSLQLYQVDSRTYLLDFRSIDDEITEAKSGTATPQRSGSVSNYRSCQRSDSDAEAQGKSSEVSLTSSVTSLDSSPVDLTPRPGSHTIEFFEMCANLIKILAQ
Sequence of Epidermal growth factor receptor (Homo sapiens), P00533 [L858R] (P00533 whole entry L858R, the tested form may be a part): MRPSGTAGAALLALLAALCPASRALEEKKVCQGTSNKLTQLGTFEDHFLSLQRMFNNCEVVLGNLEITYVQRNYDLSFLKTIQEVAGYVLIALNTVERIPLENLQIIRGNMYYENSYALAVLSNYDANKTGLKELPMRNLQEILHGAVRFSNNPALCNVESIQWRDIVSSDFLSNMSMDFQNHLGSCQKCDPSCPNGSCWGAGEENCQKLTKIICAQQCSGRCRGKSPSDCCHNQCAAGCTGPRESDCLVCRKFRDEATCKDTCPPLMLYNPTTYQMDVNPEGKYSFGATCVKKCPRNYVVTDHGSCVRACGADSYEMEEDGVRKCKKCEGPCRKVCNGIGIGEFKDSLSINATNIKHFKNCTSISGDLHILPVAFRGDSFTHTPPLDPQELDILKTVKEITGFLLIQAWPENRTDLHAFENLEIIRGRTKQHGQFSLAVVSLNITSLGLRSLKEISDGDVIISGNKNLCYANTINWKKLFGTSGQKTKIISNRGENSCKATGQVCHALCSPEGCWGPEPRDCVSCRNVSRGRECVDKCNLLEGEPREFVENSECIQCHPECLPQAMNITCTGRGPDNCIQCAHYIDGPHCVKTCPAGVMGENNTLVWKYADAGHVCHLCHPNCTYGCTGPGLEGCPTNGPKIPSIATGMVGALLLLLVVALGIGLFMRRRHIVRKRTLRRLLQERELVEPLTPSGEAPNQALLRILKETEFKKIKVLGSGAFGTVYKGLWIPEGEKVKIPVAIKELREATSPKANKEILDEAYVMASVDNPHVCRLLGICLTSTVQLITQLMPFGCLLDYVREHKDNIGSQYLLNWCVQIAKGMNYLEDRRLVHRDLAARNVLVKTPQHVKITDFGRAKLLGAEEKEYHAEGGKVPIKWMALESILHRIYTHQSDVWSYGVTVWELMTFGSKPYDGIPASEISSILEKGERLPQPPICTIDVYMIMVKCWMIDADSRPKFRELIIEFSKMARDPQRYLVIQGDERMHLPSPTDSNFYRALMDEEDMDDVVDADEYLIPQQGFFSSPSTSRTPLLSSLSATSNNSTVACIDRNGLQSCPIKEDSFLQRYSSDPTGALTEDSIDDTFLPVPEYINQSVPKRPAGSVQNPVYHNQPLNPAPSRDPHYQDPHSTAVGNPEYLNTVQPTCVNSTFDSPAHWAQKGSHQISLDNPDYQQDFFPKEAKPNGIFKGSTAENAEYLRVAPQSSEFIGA
Sequence of Receptor-type tyrosine-protein kinase FLT3 (Homo sapiens) (P36888 whole entry, the tested form may be a part): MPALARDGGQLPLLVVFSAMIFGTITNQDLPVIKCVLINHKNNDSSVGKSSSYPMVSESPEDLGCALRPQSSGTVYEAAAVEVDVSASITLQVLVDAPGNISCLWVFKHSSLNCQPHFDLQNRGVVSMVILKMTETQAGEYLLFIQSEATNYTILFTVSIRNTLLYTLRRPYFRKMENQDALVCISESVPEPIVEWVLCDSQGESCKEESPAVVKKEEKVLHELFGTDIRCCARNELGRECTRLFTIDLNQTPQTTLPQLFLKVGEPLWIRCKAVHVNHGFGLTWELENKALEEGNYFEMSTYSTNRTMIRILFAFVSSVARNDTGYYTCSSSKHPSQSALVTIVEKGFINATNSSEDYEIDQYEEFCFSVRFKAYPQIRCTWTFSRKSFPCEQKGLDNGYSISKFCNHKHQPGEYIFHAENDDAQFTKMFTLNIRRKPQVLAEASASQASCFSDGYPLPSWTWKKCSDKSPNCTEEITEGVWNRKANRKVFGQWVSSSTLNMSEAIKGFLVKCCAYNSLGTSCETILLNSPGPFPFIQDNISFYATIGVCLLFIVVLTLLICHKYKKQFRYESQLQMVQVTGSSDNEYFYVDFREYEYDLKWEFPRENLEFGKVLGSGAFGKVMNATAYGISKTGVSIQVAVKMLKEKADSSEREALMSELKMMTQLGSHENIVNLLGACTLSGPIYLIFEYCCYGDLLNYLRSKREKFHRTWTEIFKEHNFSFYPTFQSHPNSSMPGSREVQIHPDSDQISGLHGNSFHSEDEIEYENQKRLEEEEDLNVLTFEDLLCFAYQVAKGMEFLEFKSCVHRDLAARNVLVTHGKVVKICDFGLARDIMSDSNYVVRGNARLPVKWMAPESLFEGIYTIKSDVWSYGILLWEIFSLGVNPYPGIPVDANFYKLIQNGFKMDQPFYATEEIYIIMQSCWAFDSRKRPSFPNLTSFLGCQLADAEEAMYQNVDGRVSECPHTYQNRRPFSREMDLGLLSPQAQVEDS
Sequence of Protein kinase C theta type (Homo sapiens) (Q04759 whole entry, looked up, the tested form may be a part): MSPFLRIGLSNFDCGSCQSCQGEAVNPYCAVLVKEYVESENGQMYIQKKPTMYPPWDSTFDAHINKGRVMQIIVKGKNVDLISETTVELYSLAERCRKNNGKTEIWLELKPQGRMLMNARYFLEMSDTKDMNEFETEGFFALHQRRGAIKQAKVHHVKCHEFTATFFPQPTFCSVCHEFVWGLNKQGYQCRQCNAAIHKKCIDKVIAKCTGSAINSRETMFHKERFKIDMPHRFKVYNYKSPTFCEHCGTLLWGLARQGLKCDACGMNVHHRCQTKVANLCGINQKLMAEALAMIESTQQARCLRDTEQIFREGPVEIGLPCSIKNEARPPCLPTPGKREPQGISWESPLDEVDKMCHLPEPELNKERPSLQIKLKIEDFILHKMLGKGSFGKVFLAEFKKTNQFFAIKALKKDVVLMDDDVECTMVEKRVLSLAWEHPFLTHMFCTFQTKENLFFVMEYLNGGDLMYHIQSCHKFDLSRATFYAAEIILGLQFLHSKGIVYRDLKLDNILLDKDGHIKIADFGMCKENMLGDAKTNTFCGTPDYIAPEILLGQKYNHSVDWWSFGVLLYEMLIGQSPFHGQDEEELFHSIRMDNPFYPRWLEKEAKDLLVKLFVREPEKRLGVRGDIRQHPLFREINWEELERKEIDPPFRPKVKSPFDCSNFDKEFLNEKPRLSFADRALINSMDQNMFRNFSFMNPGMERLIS
Sequence of RAF proto-oncogene serine/threonine-protein kinase (Homo sapiens) (P04049 whole entry, the tested form may be a part): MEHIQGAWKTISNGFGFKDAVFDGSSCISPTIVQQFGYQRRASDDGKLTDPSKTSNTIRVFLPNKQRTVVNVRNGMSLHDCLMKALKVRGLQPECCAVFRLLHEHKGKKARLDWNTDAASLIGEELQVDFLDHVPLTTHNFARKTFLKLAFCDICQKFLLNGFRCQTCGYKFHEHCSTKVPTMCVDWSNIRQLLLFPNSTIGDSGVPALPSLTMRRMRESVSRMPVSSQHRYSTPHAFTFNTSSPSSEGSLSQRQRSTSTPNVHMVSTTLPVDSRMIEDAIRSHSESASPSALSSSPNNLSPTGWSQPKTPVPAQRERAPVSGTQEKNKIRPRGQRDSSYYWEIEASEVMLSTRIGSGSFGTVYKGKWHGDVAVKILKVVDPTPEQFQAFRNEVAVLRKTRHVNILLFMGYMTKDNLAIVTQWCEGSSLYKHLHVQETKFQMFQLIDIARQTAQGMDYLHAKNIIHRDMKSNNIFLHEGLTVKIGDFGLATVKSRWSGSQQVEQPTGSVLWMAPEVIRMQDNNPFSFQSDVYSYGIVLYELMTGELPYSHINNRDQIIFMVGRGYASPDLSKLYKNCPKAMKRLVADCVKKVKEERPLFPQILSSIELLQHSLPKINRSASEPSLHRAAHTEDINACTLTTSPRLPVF
Sequence of Myosin light chain kinase (Homo sapiens) (Q32MK0 whole entry, the tested form may be a part): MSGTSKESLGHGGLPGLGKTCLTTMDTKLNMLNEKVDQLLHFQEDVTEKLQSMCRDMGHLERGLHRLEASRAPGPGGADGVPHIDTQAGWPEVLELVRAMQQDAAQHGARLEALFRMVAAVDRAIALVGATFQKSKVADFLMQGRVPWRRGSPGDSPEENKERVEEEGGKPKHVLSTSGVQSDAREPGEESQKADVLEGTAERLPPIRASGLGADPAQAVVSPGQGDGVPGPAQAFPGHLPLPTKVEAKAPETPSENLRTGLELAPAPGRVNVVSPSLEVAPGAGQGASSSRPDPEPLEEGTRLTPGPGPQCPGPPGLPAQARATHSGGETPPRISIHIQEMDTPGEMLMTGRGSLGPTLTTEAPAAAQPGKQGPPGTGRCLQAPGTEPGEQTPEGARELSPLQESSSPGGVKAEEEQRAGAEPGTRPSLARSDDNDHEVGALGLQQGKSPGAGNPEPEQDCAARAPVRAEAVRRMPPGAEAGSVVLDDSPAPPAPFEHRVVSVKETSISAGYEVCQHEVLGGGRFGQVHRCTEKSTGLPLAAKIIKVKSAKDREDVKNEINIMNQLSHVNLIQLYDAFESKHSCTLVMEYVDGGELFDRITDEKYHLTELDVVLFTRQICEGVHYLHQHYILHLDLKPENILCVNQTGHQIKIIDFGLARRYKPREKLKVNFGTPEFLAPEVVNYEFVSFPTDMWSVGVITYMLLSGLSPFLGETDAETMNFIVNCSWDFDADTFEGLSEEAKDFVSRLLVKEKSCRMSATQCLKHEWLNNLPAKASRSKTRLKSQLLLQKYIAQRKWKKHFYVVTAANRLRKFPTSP

O=C(Nc1cccc([C@@H]2CN(c3ncnc4[nH]ccc34)CCN2CCO)c1)Nc1c(F)cccc1N1CCCC1
inhibition [1]: 100%
inhibition [2]: 85%
inhibition [3]: 98%
inhibition [4]: 99%
inhibition [5]: 82%
inhibition [6]: 71%
inhibition [7]: 86%
inhibition [8]: 68%
inhibition [9]: 97%
inhibition [10]: 100%
inhibition [11]: 52%
inhibition [12]: 100%
inhibition [13]: 76%
inhibition [14]: 53%
inhibition [15]: 100%
inhibition [16]: 61%

O=C(Nc1cccc([C@H]2CCCN(c3ncnc4[nH]ccc34)C2)c1)Nc1ccccc1N1CCCC1
inhibition [17]: 6.6%
inhibition [18]: 76%
inhibition [19]: 100%
inhibition [20]: 54%
inhibition [21]: 14%
inhibition [22]: 4.3%
inhibition [23]: 31%
inhibition [24]: 51%
inhibition [25]: 0.65%
inhibition [26]: 88%
inhibition [27]: 45%
